Results taken from PMC7024361, “Vaginal Polyelectrolyte Layer-by-Layer Films Based on Chitosan Derivatives and Eudragit® S100 for pH Responsive Release of Tenofovir” (Marine Drugs, 2020).
In brackets after ≈: the same amount, converted by molar mass.

Assays:
[1] = Material cytotoxicity, CellTiter Glo; type: cell-based; conditions: human, maximum concentration tested 1000 µg/mL
Protocol: To study cell toxicity, the materials were incubated in culture media at 37 °C and 5% CO2 for 48 h before the assay to ensure that any potential toxic component would be present in the dilutions to be tested. The cell culture was then treated with a suspension of base 5 serial dilutions of the most concentrated suspension (1000 µg/mL). Experiments were performed in lymphoblastic (MT-2) and macrophage-monocyte (THP-1) derived cell lines to evaluate toxicity on the immune cells present in vaginal or uterine mucosae, and in a uterine epithelial cell line (HEC-1A) to evaluate the potential damage to mucosal integrity (Figure 12).
Three human cell lines were used: a lymphoblastic cell line, MT-2 [65], a macrophage-monocyte derived cell line, THP-1 (ATCC® TIB-202) and a uterine/endometrial epithelial cell line, HEC-1A (ATCC® HTB-112™) (kindly provided by Maria Angeles Muñoz). All the cell lines were cultured in RPMI 1640 medium supplemented with 10 % (v/v) fetal bovine serum, 2 mM L-glutamine and […] streptomycin (all Whittaker M.A. Bio-Products, Walkerville, MD, USA) at 37 °C in a humidified atmosphere of 5 % CO2. To detach the HEC-1-A cells, the medium was removed and the flask was rinsed during 10 min with 1 to 2 mL of trypsin 0.25%—EDTA 0.03% solution. The medium was replaced every three days after cell centrifugation at 1500 rpm for 5 min.
Cell toxicity was measured using the CellTiter Glo kit (Promega, Madison, WI, USA). Cells were incubated in 96-well plates at a density of […] cells per well (MT-2 and THP-1) and 2 × 10^4 (HEC-1A) in complete medium. To assess the cytotoxic effect, cells were exposed to fresh medium containing different concentrations of lactic acid, tartaric acid, citric acid, TEC and ES100 suspensions, or the same concentration of PBS 1× as control. Experiments were performed in triplicate and the culture was maintained at 37 °C and 5% CO2 humidified atmosphere for 48 h. A standard method was followed to suspend the materials in PBS 1× [66]. After incubation for 48 h, the medium was removed from cell cultures and 50 µL of CellTiter Glo reactive was added to each well on the plate. Relative luminescence units (RLUs) were measured in a luminometer (Sirius, Berthold Detection Systems). Cytotoxic concentration 50 (CC50) values were calculated using GraphPad Prism Software (non-linear regression, log inhibitor versus response). The results of the cytotoxic assay are shown as the average of at least three individual experiments.

HIV = tested on: HIV; set-up: method as in PMID 22964245; conditions: women; cited from earlier work
[2] = HEC-1A uterine/endometrial epithelial cells
[3] = MT-2 lymphoblastic cells, MT-2, 48 h
[4] = THP-1 macrophage-monocyte derived cells, THP1, 48 h

Compound | CC50 at 48 h [1, 2] | CC50 at 48 h [1, 3] | CC50 at 48 h [1, 4] | cervicovaginal fluid concentration that confers protection against HIV (HIV)
O=C(O)CC(O)(CC(=O)O)C(=O)O [Citric acid, citric acid] | > 1000 µg/mL | > 1000 µg/mL | ~1000 µg/mL (≈ 5.2 mM) | 
C[C@H](Cn1cnc2c(N)ncnc21)OCP(=O)(O)O [TFV, Tenofovir] |  |  |  | 1000 ng/mL
O=C(O)C(O)C(O)C(=O)O (stereo not drawn) [Tartaric acid, L(+)-Tartaric acid] | ~200 µg/mL (≈ 1.33 mM) | > 1000 µg/mL | > 1000 µg/mL | 
CCOC(=O)CC(O)(CC(=O)OCC)C(=O)OCC [TEC, triethylcitrate] | > 1000 µg/mL | ~1000 µg/mL (≈ 3.62 mM) | > 1000 µg/mL | 
CC(O)C(=O)O (stereo not drawn) [Lactic acid, L(+)-Lactic acid] | > 1000 µg/mL | > 1000 µg/mL | > 1000 µg/mL | 
